Measurements taken from patent US20240239806A1, “COMPOUNDS, COMPOSITIONS AND METHODS OF TREATING DISORDERS” (Chengdu Anticancer Bioscience, Ltd., priority 2021, published 2024).
Read-outs that look alike come from different tables or passages of the source.

Key:
Format in all cases: cell-based
RPEMYC^H2B-GFP cells = experiment: Phenotypic screening assay (mitotic arrest, polyploidy); conditions: 1 nM to 30 μM; for IC50: read-out: Proliferative arrest (>50%)
How it was run: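 RPE cells expressing MYC and H2B-EGFP treated with compound at 1 nM–30 μM; mitotic index scored at 24 h and polyploidy (DNA content) at 48 h by automated imaging, with reads at 24, 48 or 72 h. Hits show transient mitotic arrest followed by polyploid accumulation.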

HCT116 [1] = experiment: MECP in cancer cell line; conditions: Homo sapiens, HCT-116
Procedure: (§1) Six lung cancer cell lines (NCI-H23, NCI-H460, NCI-H596, NCI-H2170, Calu-6 and A549), two colon cancer cell lines (HCT116 and SW460), one breast cancer cell line MDA-MB-231, one gastric cancer cell line NCI-N87, one prostate cancer cell line DU145, one cervical cancer cell line Hela, and one glioblastoma cell line T98G were obtained from ATCC. The T2 HCC cell line was derived from a mouse liver cancer model initiated by a transgene of MYC. All cell lines were cultured in DMEM (Gibco, Cleveland, TN, USA) supplemented with 5% fetal bovine serum (Gibco), penicillin (100 U/mL)—streptomycin (100 μg/mL) (Gibco, Cat. No. 15140-122), 2 mM L-glutamine (Gibco, 200 mM solution, Cat. No. 25030081), and 1 mM sodium pyruvate (Gibco, 100 mM solution, Cat. No. 11360070) at 37° C. in a humidified incubator that was maintained at 5% CO2.
(§2) We have previously developed a mechanism-informed phenotypic screening assay to identify novel antimitotic agents. Equipped with a prior understanding of the versatile functions of the chromosomal passenger protein (CPP) complex in orchestrating karyokinesis and cytokinesis, the screening assay is to score for phenotypes typically seen when the CPP complex is disabled. Specifically, the parameters for a positive hit are a temporary elevation of mitotic index (MI) at 24 hours of drug treatment and an accumulation of polyploid cells at 48 hours of drug treatment, indicative of mitotic arrest and cytokinetic failure respectively. These parameters exclude compounds that elicit only a prolonged arrest of cells in mitosis, a phenotype typically provoked by spindle toxins. The screening procedure is briefly summarized here. RPEMYC^H2B-GFP cells engineered to express a Histone 2B-EGFP fusion protein were passaged as batches of 96-well plates, 18-24 hours before exposure to the chemical compounds of the present disclosure at concentrations from 1 nM to 30 μM. At 24, 48 or 72 hours after initiation of treatment, cells were analyzed for either an arrest in mitosis or a change in DNA content by GE IN-Cell Analyzer 2000. As set forth in Table 2 below, a value of greater than or equal to 1 nM and less than or equal to 1.0 μM is marked “A”; a value greater than 1.00 μM and less than or equal to 10.0 μM is marked “B”; a value greater than 10.0 μM and less than or equal to 30.0 μM is marked “C”; and a value greater than 30.0 μM is marked “D.”

MDA-MB-231 [2] = experiment: MECP in cancer cell line; conditions: Homo sapiens
Procedure: as §1, §2

Hela [3] = experiment: MECP in cancer cell line; conditions: Homo sapiens
Procedure: as §1, §2

SW480 [4] = experiment: MECP in cancer cell line; conditions: Homo sapiens
Procedure: as §1, §2

T2 HCC [5] = experiment: MECP in cancer cell line; conditions: Mus musculus
Procedure: as §1, §2

A549 [6] = experiment: MECP in cancer cell line; conditions: Homo sapiens
Procedure: as §1, §2

NCI-H23 [7] = experiment: MECP in cancer cell line; conditions: Homo sapiens
Procedure: as §1, with “CO2. […]” for “CO2.”

NCI-N87 [8] = experiment: MECP in cancer cell line; conditions: Homo sapiens
Procedure: as §1, with “CO2. […]” for “CO2.”

HCT116 [9] = experiment: MTT assay of cellular proliferation; conditions: Homo sapiens, HCT-116, 50% inhibition of cellular proliferation
Procedure: as §1
(§3) The MTT assay measures cellular metabolic activity as a proxy for cell viability and involves the conversion of the water-soluble yellow dye MTT [3-(4,5-dimethylthiazol-2-yl)-2,5-diphenyltetrazolium bromide] into an insoluble purple formazan by the action of mitochondrial reductase. Formazan is then solubilized and its concentration is determined by measuring the optical density (OD) value at a wavelength of 570 nm. The value is in proportional to the number of live cells with excellent linearity up to ˜10^6 cells per well. The MTT assay was used to determine the EC50 value, the concentration of a compound that leads to 50% inhibition of cellular proliferation. Briefly, cells were split when growing to the mid-Log phase. Cells in 100 μL of culture medium were seeded into each well of 96-well microplates and cultivated for 15-24 hours to reach a confluence of 20-30% and were then exposed to drugs at concentrations ranging from 1 nM to 30 μM. At the endpoint, 20 μL of a MTT stock solution in DMSO (5 mg/mL) was added to each well that contains 100 μL of DMEM. The microplates were left in the cell culture incubator for 3-4 h before subjected to solubilization and determination of formazan at A570 in a microplate reader (BioTek ELX808iu). […] Therefore, these compounds might hold a broad utility in the treatment of a large variety of human malignancies.

MDA-MB-231 [10] = experiment: MTT assay of cellular proliferation; conditions: Homo sapiens; MDA-MB-231, MTT, 50% inhibition of cellular proliferation
Procedure: as §1, §3

NCI-H23 [11] = experiment: MTT assay of cellular proliferation; conditions: Homo sapiens, 50% inhibition of cellular proliferation
Procedure: as §1, §3

Hela [12] = experiment: MTT assay of cellular proliferation; conditions: Homo sapiens, 50% inhibition of cellular proliferation
Procedure: as §1, §3

SW480 [13] = experiment: MTT assay of cellular proliferation; conditions: Homo sapiens, 50% inhibition of cellular proliferation
Procedure: as §1, §3

NCI-N87 [14] = experiment: MTT assay of cellular proliferation; conditions: Homo sapiens, 50% inhibition of cellular proliferation
Procedure: as §1, §3

T2 HCC [15] = experiment: MTT assay of cellular proliferation; conditions: Mus musculus, 50% inhibition of cellular proliferation
Procedure: as §1, §3

A549 [16] = experiment: MTT assay of cellular proliferation; conditions: Homo sapiens, 50% inhibition of cellular proliferation
Procedure: as §1, §3

[17] = read-out: Min. Effective conc. for Polyploidy (≥5%)

EC50 (HCT116 [9]) [µM]	EC50 (MDA-MB-231 [10]) [µM]	EC50 (NCI-H23 [11]) [µM]	EC50 (Hela [12]) [µM]	EC50 (SW480 [13]) [µM]	EC50 (T2 HCC [15]) [µM]	EC50 (A549 [16]) [µM]	SMILES	minimal effective concentration (RPEMYC^H2B-GFP cells; [17]) [µM]	minimal effective concentration (RPEMYC^H2B-GFP cells; read-out: Mitotic Arrest (≥5%)) [µM]	IC50 (RPEMYC^H2B-GFP cells) [µM]	minimal effective concentration (HCT116 [1]) [µM]	minimal effective concentration (MDA-MB-231 [2]) [µM]	minimal effective concentration (Hela [3]) [µM]	minimal effective concentration (SW480 [4]) [µM]	minimal effective concentration (T2 HCC [5]) [µM]	minimal effective concentration (A549 [6]) [µM]	minimal effective concentration (NCI-H23 [7]) [µM]	minimal effective concentration (NCI-N87 [8]) [µM]	EC50 (NCI-N87 [14]) [µM]	Min. Effective conc. for Polyploidy (≥5%) (RPEMYC^H2B-GFP cells)	also measured
0.001 to 1	0.001 to 1	0.001 to 1	0.001 to 1	1 to 10	0.001 to 1	0.001 to 1	COc1cc(Oc2ccnc3ccc(F)cc23)cc(-n2cccn2)c1 [Compound 19, 6-fluoro-4-(3-methoxy-5-(1H-pyrazol-1-yl)phenoxy)quinoline]	0.001 to 1	0.001 to 1	0.001 to 1	0.001 to 1	0.001 to 1	0.001 to 1	0.001 to 1	0.001 to 1	0.001 to 1	0.001 to 1	0.001 to 1	0.001 to 1		
0.001 to 1	0.001 to 1	0.001 to 1	0.001 to 1	0.001 to 1	0.001 to 1	0.001 to 1	COc1cc(NC(C)=O)cc(Oc2ccnc3ccc(F)cc23)c1 [Compound 20, N-(3-((6-fluoroquinolin-4-yl)oxy)-5-methoxyphenyl)acetamide]	0.001 to 1	0.001 to 1	0.001 to 1	0.001 to 1	0.001 to 1	0.001 to 1	0.001 to 1	0.001 to 1	0.001 to 1	0.001 to 1	0.001 to 1	0.001 to 1		
0.001 to 1	0.001 to 1	0.001 to 1	0.001 to 1	0.001 to 1	0.001 to 1	0.001 to 1	COc1cc(NC(C)=O)cc(Oc2ccnc3ccc(Br)cc23)c1 [Compound 22, N-(3-((6-bromoquinolin-4-yl)oxy)-5-methoxyphenyl)acetamide]	0.001 to 1	0.001 to 1	0.001 to 1	0.001 to 1	0.001 to 1	0.001 to 1	0.001 to 1	0.001 to 1	0.001 to 1	0.001 to 1	0.001 to 1	0.001 to 1		
1 to 10	0.001 to 1	0.001 to 1	0.001 to 1	1 to 10	1 to 10	1 to 10	COC(=O)c1cc2c(Oc3cc(OC)cc(-n4cccn4)c3)ccnc2cc1OC [Compound 32, methyl 7-methoxy-4-(3-methoxy-5-(1H-pyrazol-1-yl)phenoxy)quinoline-6-carboxylate]	0.001 to 1	0.001 to 1	0.001 to 1	0.001 to 1	1 to 10	0.001 to 1	0.001 to 1	0.001 to 1	0.001 to 1	0.001 to 1	1 to 10	1 to 10		

SMILES	EC50 (HCT116 [9]) [µM]	EC50 (MDA-MB-231 [10]) [µM]	EC50 (NCI-H23 [11]) [µM]	EC50 (Hela [12]) [µM]	EC50 (SW480 [13]) [µM]	EC50 (T2 HCC [15]) [µM]	EC50 (A549 [16]) [µM]	minimal effective concentration (RPEMYC^H2B-GFP cells; [17]) [µM]	minimal effective concentration (RPEMYC^H2B-GFP cells; read-out: Mitotic Arrest (≥5%)) [µM]	IC50 (RPEMYC^H2B-GFP cells) [µM]	minimal effective concentration (HCT116 [1]) [µM]	minimal effective concentration (MDA-MB-231 [2]) [µM]	minimal effective concentration (Hela [3]) [µM]	minimal effective concentration (SW480 [4]) [µM]	minimal effective concentration (T2 HCC [5]) [µM]	minimal effective concentration (A549 [6]) [µM]	minimal effective concentration (NCI-H23 [7]) [µM]	minimal effective concentration (NCI-N87 [8]) [µM]	EC50 (NCI-N87 [14]) [µM]	Min. Effective conc. for Polyploidy (≥5%) (RPEMYC^H2B-GFP cells)	also measured
COc1cc(NC(C)=O)cc(Oc2ccnc3cc(OC)c(OC)cc23)c1 [Compound 27, N-(3-((6,7-dimethoxyquinolin-4-yl)oxy)-5-methoxyphenyl)acetamide]	0.001 to 1	0.001 to 1	0.001 to 1	0.001 to 1	0.001 to 1	0.001 to 1	0.001 to 1	0.001 to 1	0.001 to 1	0.001 to 1	0.001 to 1	0.001 to 1	0.001 to 1	0.001 to 1	0.001 to 1	0.001 to 1	0.001 to 1	0.001 to 1	0.001 to 1	B (a value greater than 1.00 μM and less than or equal to 10.0 μM)	Mitotic Arrest (≥5%) (RPEMYC^H2B-GFP cells): B (a value greater than 1.00 μM and less than or equal to 10.0 μM); Proliferative arrest (>50%) (RPEMYC^H2B-GFP cells): B (a value greater than 1.00 μM and less than or equal to 10.0 μM); Along with Cell Death (RPEMYC^H2B-GFP cells; listed as 23): B (a value greater than 1.00 μM and less than or equal to 10.0 μM)
COc1cc(Oc2ccnc3cc(OC)c(C(N)=O)cc23)cc(-n2cccn2)c1 [Compound 30, 7-methoxy-4-(3-methoxy-5-(1H-pyrazol-1-yl)phenoxy)quinoline-6-carboxamide]	0.001 to 1	0.001 to 1	0.001 to 1	0.001 to 1	0.001 to 1	0.001 to 1	0.001 to 1	0.001 to 1	0.001 to 1	0.001 to 1	0.001 to 1	0.001 to 1	0.001 to 1	0.001 to 1	0.001 to 1	0.001 to 1	0.001 to 1	0.001 to 1	0.001 to 1	D (a value greater than 30.0 μM)	Mitotic Arrest (≥5%) (RPEMYC^H2B-GFP cells): D (a value greater than 30.0 μM); Proliferative arrest (>50%) (RPEMYC^H2B-GFP cells): D (a value greater than 30.0 μM); Along with Cell Death (RPEMYC^H2B-GFP cells; listed as 25): D (a value greater than 30.0 μM)
